According to patent publication US20050004172A1, “Solid state forms of 5-(difluoro-methoxy)-2-((3,4-dimethoxy-2-pyridinyl)-methyl) sulfinyl]-1H-benzimidazole sodium aquo complexes” (Pliva-Istrazivacki Institut d.o.o., priority 2003, published 2005):

Tests used:
[1] = Solid-state form conversion under crushing or compressing; type: physicochemical
[2] = Solid-state stability under normal storage conditions; type: physicochemical; conditions: typically, but not limited to, temperatures of about 20° C. to about 30° C., relative humidity of about 30% to about 60%

COc1ccnc(C[S+]([O-])c2nc3ccc(OC(F)F)cc3[nH]2)c1OC (centres unmarked) [Form A1, 5-(difluoromethoxy)-2-[[(3,4-dimethoxy-2-pyridinyl)methyl]sulfinyl]-1H-benzimidazole]
conversion into other known solid-state forms of pantoprazole sodium [1]: does not convert
stability under normal storage conditions [2]: stable

COc1ccnc(C[S+]([O-])c2nc3ccc(OC(F)F)cc3[nH]2)c1OC (centres unmarked) [Form A2, 5-(difluoromethoxy)-2-[[(3,4-dimethoxy-2-pyridinyl)methyl]sulfinyl]-1H-benzimidazole]
conversion into other known solid-state forms of pantoprazole sodium [1]: does not convert
stability under normal storage conditions [2]: stable

COc1ccnc(C[S+]([O-])c2nc3ccc(OC(F)F)cc3[nH]2)c1OC (centres unmarked) [Form A3, 5-(difluoromethoxy)-2-[[(3,4-dimethoxy-2-pyridinyl)methyl]sulfinyl]-1H-benzimidazole]
conversion into other known solid-state forms of pantoprazole sodium [1]: does not convert
stability under normal storage conditions [2]: stable

COc1ccnc(C[S+]([O-])c2nc3ccc(OC(F)F)cc3[nH]2)c1OC (centres unmarked) [Form A4, 5-(difluoromethoxy)-2-[[(3,4-dimethoxy-2-pyridinyl)methyl]sulfinyl]-1H-benzimidazole]
conversion into other known solid-state forms of pantoprazole sodium [1]: does not convert
stability under normal storage conditions [2]: stable
